Literature values in patent publication US20070060557A1, “Superoxide dismutase mimics for the treatment of optic nerve and retinal damage” (priority 2003, published 2007).

Tests used:
[1] = tested on: light-induced retinal damage in albino rats; conditions: albino rats (Wang et al. 1995)
[2] = tested on: rat ocular ischemia-reperfusion model; conditions: intravitreal injections (Rios et al. 1999)

Row | Compound | light-induced retinal damage [1] | functional protection [2] [%]
1 | CC1(C)CC(O)CC(C)(C)N1[O] [4-hydroxy-2,2,6,6-tetramethylpiperidine-1-oxyl] | inhibited light-induced retinal damage | –
2 | CNC(=S)NC [dimethylthiourea] | – | 40
